Patent US20260226025A1, “PHARMACEUTICALLY ACCEPTABLE SALT AND CRYSTAL FORM OF TRIAZOLE COMPOUND, AND PREPARATION METHOD THEREFOR” (JIANGSU HENGRUI PHARMACEUTICALS CO., LTD., priority 2023, published 2026)

Columns and labels:
Type in all cases: physicochemical
[1] = DVS (dynamic vapor sorption) hygroscopicity test
Experimental: The MS analyses were performed using an Agilent 1200/1290 DAD-6110/6120 Quadrupole MS liquid chromatography-mass spectrometry system (manufacturer: Agilent; MS model: 6110/6120 Quadrupole MS), waters ACQuity UPLC-QD/SQD (manufacturer: waters; MS model: waters ACQuity Qda Detector/waters SQ Detector), and THERMO Ultimate 3000-Q Exactive (manufacturer: THERMO; MS model: THERMO Q 15 Exactive). The HPLC analyses were performed using an Agilent 1260DAD high pressure liquid chromatograph (Sunfire C18 150×4.6 mm chromatography column) and a Thermo U3000 high pressure liquid chromatograph (Gimini C18 150× 4.6 mm chromatography column). XRPD refers to X-ray powder diffraction: The analysis was performed using a BRUKER D8 X-ray diffractometer; specific acquisition information: a Cu anode (40 kV, 40 mA), ray: monochromatic Cu-Ka ray (1=1.5418 Å). Scan mode: θ/2θ; scan range: 3-48°. DSC refers to differential scanning calorimetry: The analysis was performed using a METTLER TOLEDO DSC 3+ differential scanning calorimeter, with a temperature ramp rate of 10° C./min, specific temperature ranges shown in corresponding patterns (mostly 25° C.-300° C.), and a nitrogen purge speed of 50 mL/min. TGA refers to thermogravimetric analysis: The analysis was performed using a METTLER TOLEDO TGA 2 thermogravimetric analyzer, with a temperature ramp rate of 10° C./min, specific temperature ranges shown in corresponding patterns (mostly 30° C.-400° C.), and a nitrogen purge speed of 50 mL/min. DVS refers to dynamic vapor sorption: Surface Measurement Systems instrinsic was adopted; the humidity started at 50%, the humidity range of the investigation was 0%-95%, and the humidity was increased in increments of 10%; the criterion was as follows: each gradient mass change dM/dT≤0.002%; TMAX 360 min, two cycles.

[2] = Influencing factor stability study (open containers; light, high temperature, high humidity); conditions: for physical and chemical stability (conclusion): standing for 1 month, influencing factor conditions
Experimental: Samples of the free-state crystal forms A and B of the compound represented by formula I were spread in open containers and left to stand under light exposure (4500 Lux), high temperature (40° C. and 60° C.), and high humidity (RH 75% and RH 93%) conditions for 1 month to study their stability.
Samples of the crystal forms I and II of the sodium salt of the compound represented by formula I were spread in open containers and left to stand under light exposure (4500 Lux), high temperature (40° C. and 60° C.), and high humidity (RH 75%) conditions for 1 month to study their stability.

[3] = Long-term/accelerated stability; conditions: for physical and chemical stability (conclusion): long-term accelerated conditions for 6 months
[4] = accelerated experimental conditions, 70% RH
[5] = normal storage conditions, 25° C. and 60% RH
[6] = 25° C./60% RH, 1 month, listed as Free-state crystal form B
[7] = 25° C./60% RH, 2 months, listed as Free-state crystal form B
[8] = 25° C./60% RH, 3 months, listed as Free-state crystal form B
[9] = 25° C./60% RH, 6 months, listed as Free-state crystal form B
[10] = 40° C./75% RH, 1 month, listed as Free-state crystal form B
[11] = 40° C./75% RH, 2 months, listed as Free-state crystal form B
[12] = 40° C./75% RH, 3 months, listed as Free-state crystal form B
[13] = 40° C./75% RH, 6 months, listed as Free-state crystal form B
[14] = Initial, 0, listed as Free-state crystal form B
[15] = 25° C./60% RH, 1 month, listed as Free-state crystal form A
[16] = 25° C./60% RH, 2 months, listed as Free-state crystal form A
[17] = 25° C./60% RH, 3 months, listed as Free-state crystal form A
[18] = 25° C./60% RH, 6 months, listed as Free-state crystal form A
[19] = 40° C./75% RH, 1 month, listed as Free-state crystal form A
[20] = 40° C./75% RH, 2 months, listed as Free-state crystal form A
[21] = 40° C./75% RH, 3 months, listed as Free-state crystal form A
[22] = 40° C./75% RH, 6 months, listed as Free-state crystal form A
[23] = Initial, 0, listed as Free-state crystal form A

COCc1ccnc(OCc2c(-c3ccc(O[C@H]4C[C@@H]5CC[C@H](C(=O)O)[C@@H]5C4)c(C)n3)nnn2C)n1 [Crystal form B, (1S,3aS,5S,6aR)-5-((6-(5-(((4-(methoxymethyl)pyrimidin-2-yl)oxy)methyl)-1-methyl-1H-1,2,3-triazol-4-yl)-2-methylpyridin-3-yl)oxy) octahydropentalene-1-carboxylic acid]
97.7%: Purity % ([2]; 40° C., 1 month) | Purity % ([2]; 40° C., 7 days) | Purity % ([2]; 40° C., 14 days) | Purity % ([2]; 60° C., 1 month) | Purity % ([2]; 60° C., 7 days) | Purity % ([2]; 60° C., 14 days) | Purity % ([2]; 75% RH, 1 month) | Purity % ([2]; 75% RH, 7 days) | Purity % ([2]; 75% RH, 14 days) | Purity % ([2]; 93% RH, 1 month) | Purity % ([2]; 93% RH, 7 days) | Purity % ([2]; 93% RH, 14 days) | Purity % ([2]; 4500 Lux, 7 days) | Purity % ([2]; Initial, 0 days) | Purity % [3, 6] | Purity % [3, 7] | Purity % [3, 8] | Purity % [3, 9] | Purity % [3, 10] | Purity % [3, 11] | Purity % [3, 12] | Purity % [3, 13] | Purity % [3, 14]
good physical and chemical stability: physical and chemical stability (conclusion) [2] | physical and chemical stability (conclusion) [3]
about 0.64%: hygroscopic weight gain ([1]; extreme conditions, 90% RH)
about 0.25%: hygroscopic weight gain [1, 5]
Crystal form B: Crystal form ([2]; 40° C., 1 month) | Crystal form ([2]; 40° C., 7 days) | Crystal form ([2]; 40° C., 14 days) | Crystal form ([2]; 60° C., 1 month) | Crystal form ([2]; 60° C., 7 days) | Crystal form ([2]; 60° C., 14 days) | Crystal form ([2]; 75% RH, 1 month) | Crystal form ([2]; 75% RH, 7 days) | Crystal form ([2]; 75% RH, 14 days) | Crystal form ([2]; 93% RH, 1 month) | Crystal form ([2]; 93% RH, 7 days) | Crystal form ([2]; 93% RH, 14 days) | Crystal form ([2]; 4500 Lux, 1 month) | Crystal form ([2]; 4500 Lux, 7 days) | Crystal form ([2]; 4500 Lux, 14 days) | Crystal form ([2]; Initial, 0 days) | Crystal form [3, 6] | Crystal form [3, 7] | Crystal form [3, 8] | Crystal form [3, 9] | Crystal form [3, 10] | Crystal form [3, 11] | Crystal form [3, 12] | Crystal form [3, 13] | Crystal form [3, 14]
its crystal form did not change: crystal form re-identified after the DVS test [1]
97.5%: Purity % ([2]; 4500 Lux, 14 days)
97.0%: Purity % ([2]; 4500 Lux, 1 month)
about 0.31%: hygroscopic weight gain [1, 4]

COCc1ccnc(OCc2c(-c3ccc(O[C@H]4C[C@@H]5CC[C@H](C(=O)O)[C@@H]5C4)c(C)n3)nnn2C)n1 [Crystal form A, (1S,3aS,5S,6aR)-5-((6-(5-(((4-(methoxymethyl)pyrimidin-2-yl)oxy)methyl)-1-methyl-1H-1,2,3-triazol-4-yl)-2-methylpyridin-3-yl)oxy) octahydropentalene-1-carboxylic acid]
Crystal form A: Crystal form ([2]; 40° C., 1 month) | Crystal form ([2]; 40° C., 7 days) | Crystal form ([2]; 40° C., 14 days) | Crystal form ([2]; 60° C., 1 month) | Crystal form ([2]; 60° C., 7 days) | Crystal form ([2]; 60° C., 14 days) | Crystal form ([2]; 75% RH, 1 month) | Crystal form ([2]; 75% RH, 7 days) | Crystal form ([2]; 75% RH, 14 days) | Crystal form ([2]; 93% RH, 1 month) | Crystal form ([2]; 93% RH, 7 days) | Crystal form ([2]; 93% RH, 14 days) | Crystal form ([2]; 4500 Lux, 1 month) | Crystal form ([2]; 4500 Lux, 7 days) | Crystal form ([2]; 4500 Lux, 14 days) | Crystal form ([2]; Initial, 0 days) | Crystal form [3, 15] | Crystal form [3, 16] | Crystal form [3, 17] | Crystal form [3, 18] | Crystal form [3, 19] | Crystal form [3, 20] | Crystal form [3, 21] | Crystal form [3, 22] | Crystal form [3, 23]
98.6%: Purity % ([2]; 40° C., 1 month) | Purity % ([2]; 40° C., 7 days) | Purity % ([2]; 40° C., 14 days) | Purity % ([2]; 60° C., 1 month) | Purity % ([2]; 60° C., 7 days) | Purity % ([2]; 60° C., 14 days) | Purity % ([2]; 75% RH, 1 month) | Purity % ([2]; 75% RH, 7 days) | Purity % ([2]; 75% RH, 14 days) | Purity % ([2]; 93% RH, 1 month) | Purity % ([2]; 93% RH, 7 days) | Purity % ([2]; 93% RH, 14 days) | Purity % ([2]; Initial, 0 days) | Purity % [3, 15] | Purity % [3, 16] | Purity % [3, 17] | Purity % [3, 18] | Purity % [3, 19] | Purity % [3, 20] | Purity % [3, 21] | Purity % [3, 22] | Purity % [3, 23]
about 0.20%: hygroscopic weight gain [1, 4]
its crystal form did not change: crystal form re-identified after the DVS test [1]
about 0.17%: hygroscopic weight gain [1, 5]
good physical and chemical stability: physical and chemical stability (conclusion) [2] | physical and chemical stability (conclusion) [3]
about 0.37%: hygroscopic weight gain ([1]; extreme conditions, 90% RH)
98.3%: Purity % ([2]; 4500 Lux, 7 days)
98.1%: Purity % ([2]; 4500 Lux, 14 days)
97.0%: Purity % ([2]; 4500 Lux, 1 month)
